We go through six compounds from patent US8765772B2, “Purine derivatives for use in the treatment of allergic, inflammatory and infectious diseases” (GlaxoSmithKline LLC, priority 2008, dated 2014).

The test system of this test is TNF-α. Put plainly: Induction of TNF-α using fresh human PBMCs. The note with it: PBMC, 24 hr incubation, relative to 2 μM resiquimod control, read-out: mean pEC50 for induction of TNF-α (converted). Format: cell-based. The protocol:
Assay for the Induction of Interferon-α and TNF-α using Fresh Human Peripheral Blood Mononuclear Cells (PBMCs)
Compounds were dissolved and serially diluted in DMSO to give 100× the required concentration range using a Biomek 2000. 1 ul of test compound was transferred into 96-well tissue culture plates using a Biomek FX. Each compound was assayed in duplicate for each donor. Each plate contained a dilution series of the TLR7/8 agonist resiquimod as standard and Column 11 contained 1 μl of 200 μM resiquimod (giving a 2 μM final concentration, used to define the approximate maximal response to resiquimod).
Blood samples from two human donors were collected into sodium heparin (10 U/ml). 25 ml volumes of whole blood were overlaid onto 15 mls Histopaque in Leucosep tubes which were centrifuged at 800 g for 20 min and the band at the plasma/histopaque interface carefully removed. The collected cells were centrifuged at 2500 rpm for 10 min and the pellet resuspended in 10 ml of media (RPMI 1640 (Low endotoxin) supplemented with 10% v/v foetal calf serum (FCS, low endotoxin) 100 U/ml penicillin G, 100 μg/ml streptomycin, 10 mM L-glutamine and 1× non-essential amino acids). A 1:20 dilution of the cells was prepared using trypan blue & the cells counted using a haemocytometer. The PBMCs were diluted to give a final concentration of 2×10^6/ml and 100 ul of this cells suspension was added to wells containing 1 μl of diluted test compound.
Incubation and Assays for Interferon-α and TNF-α
The cell preparations were incubated for 24 hr (37° C., 95% air, 5% CO2) after which a sample of the supernatant was removed using the Biomek FX and assayed for both IFN-α and TNF-α using the MSD (Mesoscale Discovery) electrochemiluminescence assay platform. The IFN-α assay was carried out similarly to that described above. The TNF-α assay was carried out as per kit instructions (Cat No K111BHB). Cytokine released was expressed as a percentage of the 2 μM resiquimod control (column 11). This percentage was plotted against compound concentration and the pEC50 for the response determined by non-linear least squares curve fitting. For the IFN-α responses generally a 4 parameter logistic model was selected. For the TNF responses where a clear maximum response was obtained (i.e. a well defined plateau in the response was observed) then a 4 parameter model was generally used. If the upper asymptote of the curve wasn't well defined then the curve fitting was generally constrained to a maximal response of 100% (i.e. to the response to 2 μM resiquimod) or to the response of the highest concentration tested if this was greater than the resiquimod response. Some curves were bell shaped for one or both cytokines and the cytokine data on the down slope of the bell shaped response (i.e. concentrations above those giving the maximal response) were generally excluded from the fit, usually with the exception of the concentration immediately above the peak response. Curve fitting thus concentrated on the up slope of the dose response curve.

As to `CCCCOc1nc(N)c2[nH]c(=O)n(CCCCCCN3CCCCCC3)c2n1` [Example 15, 6-Amino-2-(butyloxy)-9-[6-(hexahydro-1H-azepin-1-yl)hexyl]-7,9-dihydro-8H-purin-8-one], the EC50 is at least 1000 nM.
Consider `CCCCOc1nc(N)c2[nH]c(=O)n(CCCCCCN3CCCC3)c2n1` [Example 13, 6-Amino-2-(butyloxy)-9-[6-(1-pyrrolidinyl)hexyl]-7,9-dihydro-8H-purin-8-one], for which the EC50 was at least 1000 nM.
`CCC[C@H](C)Oc1nc(N)c2[nH]c(=O)n(CCCCCN3CCCCCC3)c2n1` [Example 23, 6-Amino-9-[5-(hexahydro-1H-azepin-1-yl)pentyl]-2-{[(1S)-1-methylbutyl]oxy}-7,9-dihydro-8H-purin-8-one]: the EC50 is at least 1000 nM.
Turning to `CCC[C@H](C)Oc1nc(N)c2[nH]c(=O)n(CCCCN3CCCCC3)c2n1` [Example 20, 6-Amino-2-{[(1S)-1-methylbutyl]oxy}-9-[4-(1-piperidinyl)butyl]-7,9-dihydro-8H-purin-8-one], the EC50 is at least 1000 nM.
`CCC[C@H](C)Oc1nc(N)c2[nH]c(=O)n(CCCCCN3CCCCC3)c2n1` [Example 22, 6-Amino-2-{[(1S)-1-methylbutyl]oxy}-9-[5-(1-piperidinyl)pentyl]-7,9-dihydro-8H-purin-8-one]: the EC50 is at least 1000 nM.
For `CCC[C@H](C)Oc1nc(N)c2[nH]c(=O)n(CCCCN3CCCCCC3)c2n1` [Example 21, 6-Amino-9-[4-(hexahydro-1H-azepin-1-yl)butyl]-2-{[(1S)-1-methylbutyl]oxy}-7,9-dihydro-8H-purin-8-one], the EC50 was at least 1000 nM.
